Laboratory results published in article PMC5749703, “Isolation and characterization of a novel metagenomic enzyme capable of degrading bacterial phytotoxin toxoflavin” (PLoS ONE, 2018).

System: T1, TxeA
T1 construct: no evidence of oligomer
Experiment: toxoflavin degradation, initial velocities (HPLC)
Format: biochemical, uncultured bacterium
Details: pH 5.0, 20°C; Mn2+, DTT and oxygen required (DTT reduces toxoflavin to dihydrotoxoflavin)
Protocol: toxoflavin degradation, initial velocities (HPLC) on TxeA | apparent binding constants of substrate (KM) and catalytic efficiency (kcat/KM) for TxeA were determined

Work on Cn1ncnc2c(=O)n(C)c(=O)nc1-2 [toxoflavin, 1,6-dimethylpyrimido[5,4-e]-1,2,4-triazine-5,7(1H,6H)-dione] yielded a Km of 14 µM.
